From patent publication US6812028B1, “Embryogenesis and plant regeneration from microspores” (University of Guelph, priority 1999, dated 2004)

Test system: spring wheat Pavon 79 microspores
Assay: AGP concentrations in microspore culture in MMS4 liquid media
Assay type: cell-based
Details: for # at Day 12 Alive / # at Day 12 Dead / # at Day 12 Dividing / # at Day 12 ELS / # at Day 12 Multicellular / # at Day 12 Total Developing / Day 50 # of embryos: 4 rep average
Method: In an experiment with Pavon 79, concentrations of 0, 10, 25, 50, 100, 500 and 1000 mg/L were used in microspore culture with 4 ovaries around a drop of liquid medium with microspores on top of solidified medium. […] However, higher concentrations can also be used. […] It was observed that 10 to 14 days in induction medium with AGP may be maximal as it appears that regeneration may be reduced with longer periods on medium with AGP.

Substance: arabinogalactan protein [AGP]
- # at Day 12 Alive (AGP 10 mg/L): 69.3
- # at Day 12 Dead (AGP 10 mg/L): 58.9
- # at Day 12 Dividing (AGP 10 mg/L): 23.9
- # at Day 12 ELS (AGP 10 mg/L): 8.7
- # at Day 12 Multicellular (AGP 10 mg/L): 33.8
- # at Day 12 Total Developing (AGP 10 mg/L): 66.4
- Day 50 # of embryos (AGP 10 mg/L): 4493
- # at Day 12 Alive (AGP 25 mg/L): 66.6
- # at Day 12 Dead (AGP 25 mg/L): 69.3
- # at Day 12 Dividing (AGP 25 mg/L): 13.6
- # at Day 12 ELS (AGP 25 mg/L): 10.3
- # at Day 12 Multicellular (AGP 25 mg/L): 38
- # at Day 12 Total Developing (AGP 25 mg/L): 61.9
- Day 50 # of embryos (AGP 25 mg/L): 3538
- # at Day 12 Alive (AGP 50 mg/L): 47.9
- # at Day 12 Dead (AGP 50 mg/L): 75
- # at Day 12 Dividing (AGP 50 mg/L): 10.7
- # at Day 12 ELS (AGP 50 mg/L): 5
- # at Day 12 Multicellular (AGP 50 mg/L): 13.2
- # at Day 12 Total Developing (AGP 50 mg/L): 28.9
- Day 50 # of embryos (AGP 50 mg/L): 471
- # at Day 12 Alive (AGP 100 mg/L): 66.4
- # at Day 12 Dead (AGP 100 mg/L): 61
- # at Day 12 Dividing (AGP 100 mg/L): 17.3
- # at Day 12 ELS (AGP 100 mg/L): 2.9
- # at Day 12 Multicellular (AGP 100 mg/L): 32.2
- # at Day 12 Total Developing (AGP 100 mg/L): 52.4
- Day 50 # of embryos (AGP 100 mg/L): 3709
- # at Day 12 Alive (AGP 500 mg/L): 57.3
- # at Day 12 Dead (AGP 500 mg/L): 61
- # at Day 12 Dividing (AGP 500 mg/L): 19.4
- # at Day 12 ELS (AGP 500 mg/L): 4.5
- # at Day 12 Multicellular (AGP 500 mg/L): 27.7
- # at Day 12 Total Developing (AGP 500 mg/L): 51.6
- Day 50 # of embryos (AGP 500 mg/L): 3267
- # at Day 12 Alive (AGP 1000 mg/L): 69.3
- # at Day 12 Dead (AGP 1000 mg/L): 56
- # at Day 12 Dividing (AGP 1000 mg/L): 14.8
- # at Day 12 ELS (AGP 1000 mg/L): 7
- # at Day 12 Multicellular (AGP 1000 mg/L): 28.5
- # at Day 12 Total Developing (AGP 1000 mg/L): 50.3
- Day 50 # of embryos (AGP 1000 mg/L): 1821
- microspore viability at day 12 versus control with no AGP (AGP 10-1000 mg/L, Pavon 79): not significantly different from the control value
- embryogenesis across AGP concentrations (AGP concentrations of 10 or 25 mg/liter): optimal embryogenesis
- total number of developing structures (in the presence of AGP, day 12, Pavon 79): improved
